PMC8243516, “Inhibition of lysosomal phospholipase A2 predicts drug-induced phospholipidosis” (Journal of Lipid Research, 2021)

How the values were obtained:
[1] = molecular target: T1, recombinant mouse LPLA2 (PLA2G15) (Mus musculus, UniProt Q8VEB4); test: Transacylase activity of LPLA2 (1-O-acyl-N-acetylsphingosine synthase, cell-free liposome assay); format: biochemical; settings: for IC50: 1-O-acyl N-acetylsphingosine synthase activity, pH 4.5, DOPC/sulfatide liposomes, read-out: LPLA2 IC50
T1 construct: purchased Proteos Inc. (Kalamazoo, MI)
T1 sequence (Q8VEB4 34-412): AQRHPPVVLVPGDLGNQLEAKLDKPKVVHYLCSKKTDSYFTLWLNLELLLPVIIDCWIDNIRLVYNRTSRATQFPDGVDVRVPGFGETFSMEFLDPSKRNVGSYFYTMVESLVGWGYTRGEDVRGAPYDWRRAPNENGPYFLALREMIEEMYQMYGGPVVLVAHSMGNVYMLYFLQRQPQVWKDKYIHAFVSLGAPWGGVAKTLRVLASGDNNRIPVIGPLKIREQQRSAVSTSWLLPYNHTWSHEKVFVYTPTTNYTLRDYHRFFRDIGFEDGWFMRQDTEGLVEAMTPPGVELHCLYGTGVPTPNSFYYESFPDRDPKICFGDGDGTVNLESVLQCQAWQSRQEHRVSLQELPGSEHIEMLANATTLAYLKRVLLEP

LPLA2 = molecular target: T2, LPLA2 (Mus musculus, UniProt Q8VEB4); test: LPLA2 thermal stability measurement (SYPRO Orange Tm); format: binding; settings: N=3 ± SD
T2 construct: purchased Proteos Inc. (Kalamazoo, MI)
T2 sequence (Q8VEB4 34-412): T1 sequence (Q8VEB4 34-412)

phospholipidosis [2] = settings: phospholipidosis reported in vitro; Refs of Table 1; cited from earlier work
phospholipidosis [3] = settings: phospholipidosis reported in vivo, species codes; Refs of Table 1; cited from earlier work
[4] = ref Pubchem and chEMBL databases; cited from earlier work
MDCK cells = test: Screening phospholipidosis assay (LipidTOX Red / NucBlue Live fluorescence ratio); settings: LipidTOX Red to NucBlue Live fluorescence ratio, 24 h, 15 μM

IC50 [1] [µM]	(ΔTm)c-(ΔTm)d, difference in melting temperature of LPLA2 alone or in the presence of drug (LPLA2) [°C]	Compound	In Vitro PLD (phospholipidosis [2])	In Vivo PLD (phospholipidosis [3])	pKa (basic) [4]	LPLA2 inhibition (in words) ([1]; acyl transferase activity)	Ratio (15 μM) (MDCK cells)
9.01	-2.1 ± 0.2	CN(C)CCCN1c2ccccc2Sc2ccc(Cl)cc21 [Chlorpromazine, [3-(2-chloro-10H-phenothiazin-10-yl)propyl] dimethylamine]	Yes	R, D			
63	-0.10 ± 0.0	OCCOCCN1CCN(C(c2ccccc2)c2ccc(Cl)cc2)CC1 (centres unmarked) [Hydroxyzine, 2-(2-{4-[(4-chlorophenyl) (phenyl)methyl]piperazin-1-yl}ethoxy)ethan-1-ol]		R	7.82		
		CNCCCC12CCC(c3ccccc31)c1ccccc12 [Maprotiline, methyl(3-{tetracyclo [6.6.2.0^2,^7.0^9,^14]hexadeca-2,4,6,9,11, 13-hexaen-1-yl}propyl)amine]		R	10.54		
		CNCCC(Oc1ccc(C(F)(F)F)cc1)c1ccccc1 (centres unmarked) [Fluoxetine, methyl({3-phenyl-3-[4-(trifluoromethyl)phenoxy]propyl}) amine]	Yes	H,R,M			
116	0.58 ± 0.4	Clc1ccccc1CNC[C@H]1CC[C@H](CNCc2ccccc2Cl)CC1 [ay-9944, trans-1,4-bis(2-chlorobenzylaminomethyl) cyclohexane]	Yes	R,Ra, M	9.1		
		CN(C)CCC=C1c2ccccc2COc2ccccc21 [Doxepin, dimethyl(3-{9-oxatricyclo[9.4.0.0ˆ[1]]pentadeca-1(15),3,5,7,11,13-hexaen-2-ylidene}propyl)amine]	Yes	Yes	9.76		
		CCN(CC)CCCC(C)Nc1c2ccc(Cl)cc2nc2ccc(OC)cc12.Cl.Cl (centres unmarked) [Quinacrine, 6-chloro-9-(4-diethylamino-1-methylbutylamino)-2-methoxyacridine dihydrochloride]	Yes	R			
5.12		Fc1ccc([C@@H]2CCNC[C@H]2COc2ccc3c(c2)OCO3)cc1 [Paroxetine, (3S,4R)-3-[(2H-1,3-benzodioxol-5-yloxy)methyl]-4-(4-fluorophenyl)piperidine]		R			
		CCC[C@@H]1C[C@@H](C(=O)NC(C(C)Cl)[C@H]2O[C@H](SC)[C@H](O)[C@@H](O)[C@H]2O)N(C)C1 (stereo partly drawn) [Clindamycin, (2S,4R)-N-{2-chloro-1-[(2R,3R,4S,5R,6R)-3,4,5-trihydroxy-6-(methylsulfanyl)oxan-2-yl]propyl}-1-methyl-4-propylpyrrolidine-2-carboxamide]	Yes	Yes			
33	0.27 ± 0.1	NC[C@H]1O[C@H](O[C@H]2[C@H](O)[C@@H](O[C@H]3O[C@H](CO)[C@@H](O)[C@H](N)[C@H]3O)[C@H](N)C[C@@H]2N)[C@H](N)C[C@@H]1O [Tobramycin, O-[3-amino-3-deoxy-α-D-glucopyranosyl-(1→6)]-O-[2,6-diamino-2,3,6-trideoxy-α-D-ribohexopyranosyl-(1→4)]-2-deoxy-D-streptamine]	Yes	R,H	9.8		
		CN[C@H]1CC[C@@H](c2ccc(Cl)c(Cl)c2)c2ccccc21 [Sertraline, (1S,4S)-4-(3,4-dichlorophenyl)-N-methyl-1,2,3,4-tetrahydronaphthalen-1-amine]	Yes	Yes			
6.24		CN(C)CCC=C1c2ccccc2C=Cc2ccccc21 [Cyclobenzaprine, dimethyl(3-{tricyclo[9.4.0.0^3,^8]pentadeca-1(15),3,5,7,9,11,13-heptaen-2-ylidene}propyl)amine]	Yes	Yes			
25.7	1.60 ± 0.1	CNCCCN1c2ccccc2CCc2ccccc21 [Desipramine, (3-{2-azatricyclo [9.4.0.0]pentadeca-1(15),3,5,7,11,13-hexaen-2-yl}propyl)(methyl)amine]	Yes	R			
76.1	-0.76 ± 0.1	COc1ccc(C(=O)Nc2ccccc2CCC2CCCCN2C)cc1 (centres unmarked) [Encainide, 4-methoxy-N-{2-[2-(1-methylpiperidin-2-yl)ethyl]phenyl} benzamide]	Yes		9.41		0.23
14.7	-0.5 ± 0.0	CN(C)CCC=C1c2ccccc2CCc2ccccc21 [Amitriptyline, dimethyl(3-{tricyclo[9.4.0.0^3,^8]pentadeca-1(15),3,5,7,11,13-hexaen-2-ylidene}propyl)amine]	Yes	R			
		CCCCc1oc2ccccc2c1C(=O)c1cc(I)c(OCCN(CC)CC)c(I)c1 [Amiodarone, {2-[4-(2-butyl-1-benzofuran-3-carbonyl)-2,6-diiodophenoxy]ethyl} diethyl amine]	Yes	H,R			

Compound	IC50 [1] [µM]	(ΔTm)c-(ΔTm)d, difference in melting temperature of LPLA2 alone or in the presence of drug (LPLA2) [°C]	In Vitro PLD (phospholipidosis [2])	In Vivo PLD (phospholipidosis [3])	pKa (basic) [4]	LPLA2 inhibition (in words) ([1]; acyl transferase activity)	Ratio (15 μM) (MDCK cells)
CCN(CC)CCCC(C)Nc1ccnc2cc(Cl)ccc12 (centres unmarked) [Chloroquine, 7-chloro-N-[5-(diethylamino)pentan-2-yl]quinolin-4-amine]	655		Yes	H, R, D, M			
CC(CN1c2ccccc2Sc2ccccc21)N(C)C (centres unmarked) [Promethazine, dimethyl[1-(10H-phenothiazin-10-yl)propan-2-yl] amine]	40.3	1.45 ± 0.5	Yes	Yes			
CCN1CCCC1CNC(=O)c1cc(S(N)(=O)=O)ccc1OC (centres unmarked) [Sulpiride, N-[(1-ethylpyrrolidin-2-yl)methyl]-2-methoxy-5-sulfamoylbenzamide]		1.34 ± 0.9		Yes	8.4	no inhibitory activity	
CCN(CC)CCOc1ccc(C(O)(Cc2ccc(Cl)cc2)c2ccc(C)cc2)cc1 (centres unmarked) [Triparanol, 1-(4-(2-diethylaminoethoxy)phenyl)-1-p-tolyl-2-(4-chlorophenyl)ethanol]	7.8	0	Yes	R, M, Ha	13.44		
CN(C)CCCC1(c2ccc(F)cc2)OCc2cc(C#N)ccc21 (centres unmarked) [Citalopram, 1-[3-(dimethylamino)propyl]-1-(4-fluorophenyl)-1,3-dihydro-2-benzofuran-5-carbonitrile]	19.5	0	Yes	Yes			
C=C[C@H]1C[N@@]2CC[C@H]1C[C@H]2[C@H](O)c1ccnc2ccc(OC)cc12 [Quinine, (R)-[(1S,2S,4S,5R)-5-ethenyl-1-azabicyclo [2.2.2]octan-2-yl](6-methoxyquinolin-4-yl)methanol]	164	-1.00 ± 0.1		Yes			
